In ChEMBL document CHEMBL5244257, “The role of imidazole and benzimidazole heterocycles in Chagas disease: A review” (Eur J Med Chem, 2020):
One block for each molecule: values may come before it.

Tests used:
Cruzipain [1] = molecular target: T1, Cruzipain (Trypanosoma cruzi, UniProt P25779); test: Inhibition of Trypanosoma cruzi Cruzain using Z-Phe-Arg-AMC as flurogenic substrate
Trypanosoma cruzi [2] = test: Antitrypanosomal activity against Trypanosoma cruzi Tulahuen LacZ amastigotes infected in human HFF-1 cells incubated for 120 hrs; assay type: functional, organism-based; details: HFF-1, 120 h
Trypanosoma cruzi [3] = test: Antiparasitic activity against Trypanosoma cruzi Tulahuen strain amastigotes; assay type: functional, organism-based
Trypanosoma cruzi [4] = test: Inhibition of Trypanosoma cruzi assessed as inhibition of parasite growth at 100 uM relative to control; assay type: functional
Trypanosoma cruzi [5] = test: Inhibition of Trypanosoma cruzi TIM at 100 uM relative to control
Trypanosoma cruzi [6] = test: Antitrypanosomal activity against Trypanosoma cruzi Tulahuen strain trypomastigotes infected in human MRC5 cells measured after 7 days; assay type: functional, organism-based; details: MRC5, 168 h
Trypanosoma cruzi [7] = test: Trypanocidal activity against Trypanosoma cruzi trypomastigotes; assay type: functional, organism-based
Trypanosoma cruzi [8] = test: Antitrypanosomal activity against Trypanosoma cruzi trypomastigotes; assay type: functional, organism-based
Trypanosoma cruzi [9] = test: Antitrypanosomal activity against Trypanosoma cruzi Y strain trypomastigotes infected in Swiss albino mouse incubated for 24 hrs; assay type: functional, organism-based
Trypanosoma cruzi [10] = test: Antitrypanosomal activity against Trypanosoma cruzi Y strain amastigotes incubated for 24 hrs by microscopy analysis; assay type: functional, organism-based
Cruzipain [11] = molecular target: T1, Cruzipain; test: Inhibition of Trypanosoma cruzi Cruzain
Trypanosoma cruzi [12] = test: Antitrypanosomal activity against Trypanosoma cruzi epimastigotes; assay type: functional, organism-based
[13] = Inhibition of Trypanosoma cruzi TIM
Trypanosoma cruzi [14] = test: Antitrypanosomal activity against bloodstream form of Trypanosoma cruzi Y […] measured after 24 hrs by giemsa staining based microscopic analysis; assay type: functional, organism-based
Trypanosoma cruzi [15] = test: Antitrypanosomal activity against of Trypanosoma cruzi Y trypomastigotes measured after 48 hrs by giemsa staining based microscopic analysis; assay type: functional, organism-based
Trypanosoma cruzi [16] = test: Antitrypanosomal activity against of Trypanosoma cruzi amastigotes; assay type: functional, organism-based
Trypanosoma cruzi [17] = test: Antitrypanosomal activity against Trypanosoma cruzi Tulahuen 2 epimastigotes measured after 5 days; assay type: functional, organism-based; details: Tulahuen 2, 120 h
Cruzipain [18] = molecular target: T1, Cruzipain; test: Inhibition of Trypanosoma cruzi Tulahuen 2 Cruzain using Z-Phe-Arg-AMC as flurogenic substrate at 100 uM by spectrophotometry based analysis relative to control
Trypanosoma cruzi [19] = test: Antitrypanosomal activity against of Trypanosoma cruzi Tulahuen strain amastigotes infected in mouse 3T3 cells by alamar blue staining based analysis; assay type: functional, organism-based; details: NIH3T3
[20] = Inhibition of Trypanosoma cruzi epimastigotes Fe-SOD by Bradford method
Trypanosoma cruzi [21] = test: Antitrypanosomal activity against Trypanosoma cruzi IRHOD/CO/2008/SN3 epimastigotes; assay type: functional, organism-based

T1 sequence (P25779 whole entry): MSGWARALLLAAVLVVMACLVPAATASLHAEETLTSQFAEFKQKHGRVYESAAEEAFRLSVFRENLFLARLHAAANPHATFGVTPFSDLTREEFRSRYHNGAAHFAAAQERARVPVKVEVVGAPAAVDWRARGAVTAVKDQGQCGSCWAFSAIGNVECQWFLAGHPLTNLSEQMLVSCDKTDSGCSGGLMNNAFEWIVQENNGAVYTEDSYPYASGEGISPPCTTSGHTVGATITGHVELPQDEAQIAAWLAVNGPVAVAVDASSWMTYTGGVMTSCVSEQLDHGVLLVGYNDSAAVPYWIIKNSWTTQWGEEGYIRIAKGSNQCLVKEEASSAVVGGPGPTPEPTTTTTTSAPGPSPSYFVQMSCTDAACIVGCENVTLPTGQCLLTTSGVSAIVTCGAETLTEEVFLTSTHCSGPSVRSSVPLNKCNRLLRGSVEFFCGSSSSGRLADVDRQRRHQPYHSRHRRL

Structure (SMILES): O=C(N[C@@H](Cn1ccnc1)c1ccc(-c2ccc(F)cc2)cc1F)c1ccc(-c2nnc(-c3ccccc3)o2)cc1
IC50 (Trypanosoma cruzi [3]): 0.8 nM

Structure (SMILES): CCOC(=O)c1nc2ccc([N+](=O)[O-])cc2n1OC(=O)OC(C)(C)C
inhibition at 100 µM (Trypanosoma cruzi [4]): 61%

Structure (SMILES): Cc1ccc(-c2c[nH]c(NC(=O)N3CCN(c4ccc(C(F)(F)F)cc4[N+](=O)[O-])CC3)n2)cc1
IC50 (Trypanosoma cruzi [6]): 2200 nM

Structure (SMILES): c1ccc(-c2nc(-c3cccc4ccccc34)c[nH]2)cc1
IC50 (Trypanosoma cruzi [7]): 35500 nM

Structure (SMILES): CCOC(=O)Cc1[nH]c(-c2ccccc2)nc1-c1ccc(C)cc1
IC50 (Trypanosoma cruzi [7]): 51100 nM

Structure (SMILES): Cn1cnc([N+](=O)[O-])c1-n1cc(C2CC2)nn1
IC50 (Trypanosoma cruzi [9]): 5400 nM

Structure (SMILES): Sc1nc2cc(Cl)ccc2[nH]1
IC50 (Trypanosoma cruzi [7]): 320000 nM

Structure (SMILES): Brc1ccc(-c2c[nH]c(-c3ccccn3)n2)cc1
IC50 (Trypanosoma cruzi [6]): 1200 nM

Structure (SMILES): COc1ccc(-n2c[n+](-c3ccc(OC)cc3)c(Cc3ccccc3)c2-c2ccc(C)cc2)cc1
IC50 (Trypanosoma cruzi [12]): 440 nM

Structure (SMILES): c1ccc2c(c1)cnn1c[n+](C3CCCCC3)c(NC3CCCCC3)c21
IC50 (Trypanosoma cruzi [12]): 1140 nM

Structure (SMILES): c1ccc2c(c1)ccn1c[n+](C3CCCCC3)c(NC3CCCCC3)c21
IC50 (Trypanosoma cruzi [12]): 1020 nM

Structure (SMILES): CC(C)c1cccc(C(C)C)c1-n1cc[n+](-c2c(C(C)C)cccc2C(C)C)c1
IC50 (Trypanosoma cruzi [12]): 1100 nM

Structure (SMILES): Oc1ccc(-n2c[n+](-c3ccc4ccccc4c3)c(Cc3ccccc3)c2-c2ccc(Cl)cc2)cc1
IC50 (Trypanosoma cruzi [12]): 540 nM

Structure (SMILES): CSc1nc2cc(C(=O)Nc3ncc([N+](=O)[O-])s3)c(Cl)cc2n1C
IC50 [13]: 100000 nM

Structure (SMILES): C=C(c1ccccc1OCc1cccc(Cl)c1)n1ccnc1 [CROCONAZOLE]
IC50 (Trypanosoma cruzi [14]): 24000 nM
IC50 (Trypanosoma cruzi [15]): 16000 nM

Structure (SMILES): CN(C)c1ccc(-c2nc(-c3ccccc3)c(-c3ccccc3)[nH]2)cc1
IC50 (Trypanosoma cruzi [16]): 960 nM

Structure (SMILES): Cc1cc(C)c(-n2cc[n+](-c3c(C)cc(C)cc3C)c2)c(C)c1
IC50 (Trypanosoma cruzi [12]): 2000 nM

Structure (SMILES): c1ccc(-c2ccc(Cn3cncc3CNc3ccc(-c4nc5ccccc5s4)c(-c4ccccc4)c3)cc2)cc1
IC50 (Trypanosoma cruzi [19]): 20 nM

Structure (SMILES): Cn1c([N+](=O)[O-])cnc1C1=NOC2CCCCC12 (stereo unspecified)
IC50 (Trypanosoma cruzi [12]): 33000 nM

More lines, main results first:

IC50 (Cruzipain [1]): 1000 nM
IC50 (Trypanosoma cruzi [2]): 1100 nM
Structure (SMILES): Cc1cccc(OCCNC(=O)n2ccnc2)c1

inhibition (Trypanosoma cruzi [5]): 60%
Structure (SMILES): Cn1c(OC(N)=O)nc2cc(Oc3cccc4ccccc34)c(Cl)cc21

IC50 (Trypanosoma cruzi [8]): 23900 nM
Structure (SMILES): Cn1c([N+](=O)[O-])cnc1-c1c(-c2ccccc2)nc(-c2ccc(Br)cc2)n1O

IC50 (Trypanosoma cruzi [8]): 11000 nM
IC50 (Trypanosoma cruzi [10]): 900 nM
Structure (SMILES): O=C(N[C@@H](Cn1ccnc1)c1ccc(Cl)cc1Cl)c1ccc(-c2nnc(-c3ccccc3)o2)cc1

IC50 (Cruzipain [11]): 1600 nM
Structure (SMILES): Cc1ccccc1OCC(=O)NCCc1nc2ccccc2[nH]1

IC50 (Cruzipain [11]): 590 nM
Structure (SMILES): O=C(COc1ccc2ccccc2c1Br)NCCc1nc2cc(Cl)ccc2[nH]1

IC50 (Trypanosoma cruzi [12]): 64000 nM
IC50 (Cruzipain [11]): 2000 nM
Structure (SMILES): Cc1ccc(OCCn2c(CCNC(=O)C3CCCCC3)nc3ccccc32)cc1

IC50 (Trypanosoma cruzi [12]): 10700 nM
Structure (SMILES): COc1ccc(O)c(-c2nc(C)c(C)[nH]2)c1

IC50 (Cruzipain [11]): 610 nM
Structure (SMILES): Cc1ccc2[nH]c(CCNC(=O)COc3ccc4ccccc4c3Br)nc2c1

IC50 (Trypanosoma cruzi [17]): 13300 nM
IC50 (Cruzipain [18]): 55000 nM
Structure (SMILES): CCCCn1c(-c2ccc(Br)cc2)nc2ccccc21

IC50 (Trypanosoma cruzi [21]): 8500 nM
Structure (SMILES): Oc1cccc2c(NCCc3c[nH]cn3)nnc(Cl)c12
IC50 [20]: 27000 nM
